According to patent publication US7297551B2, “Recombinant proteins and peptides for endotoxin biosensors, endotoxin removal, and anti-microbial and anti-endotoxin therapeutics” (priority 1998, dated 2007):
Marks after values point to notes of the source that are not given here. Ends that are not written are not given here. Peptide text beside a SMILES is read from it.

B1: rFCEE: truncated recombinant Factor C from pHILD2/CrFC21EE, amino acids 1-766, 90 kDa, with endotoxin-binding domain (protein, listed as Carcinoscorpius rotundicauda)
chain: MVLASFLVSGLVLGLLAQKMRPVQSKGVDLGLCDETRFECKCGDPGYVFNIPVKQCTYFYRWRPYCKPCDDLEAKDICPKYKRCQECKAGLDSCVTCPPNKYGTWCSGECQCKNGGICDQRTGACACRDRYEGVHCEILKGCPLLPSDSQVQEVRNPPDNPQTIDYSCSPGFKLKGMARISCLPNGQWSNFPPKCIRECAMVSSPEHGKVNALSGDMIEGATLRFSCDSPYYLIGQETLTCQGNGQWNGQIPQCKNLVFCPDLDPVNHAEHKVKIGVEQKYGQFPQGTEVTYTCSGNYFLMGFDTLKCNPDGSWSGSQPSCVKVADREVDCDSKAVDFLDDVGEPVRIHCPAGCSLTAGTVWGTAIYHELSSVCRAAIHAGKLPNSGGAVHVVNNGPYSDFLGSDLNGIKSEELKSLARSFRFDYVRSSTAGKSGCPDGWFEVDENCVYVTSKQRAWERAQGVCTNMAARLAVLDKDVIPNSLTETLRGKGLTTTWIGLHRLDAEKPFIWELMDRSNVVLNDNLTFWASGEPGNETNCVYMDIQDQLQSVWKTKSCFQPSSFACMMDLSDRNKAKCDDPGSLENGHATLHGQSIDGFYAGSSIRYSCEVLHYLSGTETVTCTTNGTWSAPKPRCIKVITCQNPPVPSYGSVEIKPPSRTNSISRVGSPFLRLPRLPLPLARAAKPPPKPRSSQPSTVDLASKVKLPEGHYRVGSRAIYTCESRYYELLGSQGRRCDSNGNWSGRPASCIPVCGRSDSPRSPFIWNG

Columns and labels:
[1] = test system: P. aeruginosa; assay: Microbicidal concentration (MBC) assay; type: cell-based, Pseudomonas aeruginosa; conditions: MBC
Protocol: Test strains cultured on Mueller-Hinton agar (MHA, Becton Dickinson, USA) were inoculated into 10 ml Mueller-Hinton broth (MHB, Becton Dickinson, USA) and grown overnight at 37° C. in a shaker incubator (Model 4536, Forma Scientific, Inc., USA) at 230 rpm. Overnight broth cultures were diluted to give a final cell density of 10^5 colony forming units/ml (cfu/ml). One hundred microliters of the bacterial suspension was dispensed into sterile polypropylene 8-strip PCR-tubes (Quality Scientific Plastics, USA). Eleven microliters of serially diluted sushi peptides, ranging in final concentrations of 0.03-4 μg/ml, were then added. The peptides were constituted at 10 times the required test concentrations in 0.01% acetic acid and 0.2% bovine serum albumin (BSA). Positive controls were cultures without test peptides. Uninoculated MHB was used as negative control. All tests were carried out in triplicate.
Cultures were incubated at 37° C. for 18-24 h, with the PCR-tubes held in horizontal position and shaken at 230 rpm. Cell counts were determined by standard drop-count method. The killing efficiency for the four sushi peptides were calculated based on standard drop-count method.

[2] = Protection of galactosamine-sensitized mice from LPS-induced lethality; type: in vivo, C57BL/6J mice; conditions: 75 μg peptide, 2 ng LPS pre-incubated with peptide 30 minutes
Protocol: The anti-endotoxin potency of SSCrFCES was investigated in C57BL/6J mice. Mice are typically resistant to endotoxin. However, the sensitivity of mice to endotoxin can be enhanced >1,000-fold by co-injection with a liver-specific inhibitor, galactosamine (31). […] […] Lethality was observed over 3 days after injection. Statistical analysis were performed using the Kaplan-Meier test (32) and log rank pairwise test.

[3] = test system: P. aeruginosa ATCC 27853; assay: Killing rate assay; type: cell-based, Pseudomonas aeruginosa; conditions: peptides at 0.06 μg/ml, initial 10^9 cfu/ml
Text: The killing rate assay was adapted from the MBC test above, with different contact time of peptides with the bacteria arrested at regular intervals and plated for colony count. An initial density of 10^9 cfu/ml was used. […] This is one of the important features of an effective therapeutic agent.

[4] = test system: THP-1 monocytes
Protocol: Two×10^4 THP-1 monocytes in 50 μl of RPMI 1640 were mixed in a microtitre plate with 50 μl of increasing amount of 2-fold serial dilutions of SSCrFCES (0.004-4.0 mg/ml in PBS) and incubated for 60 min at 37° C. To determine cytotoxicity induced by the SSCrFCES, 20 μl of CellTiter96™ AQueous One Solution Reagent (Promega) was added into each well for 90 min at 37° C. [3-(4,5-dimethylthiazol-2-yl)-5-(3-carboxymethoxyphenyl)-2-(4-sulfophenyl)-2H-tetrazolium (MTS) is bioreduced by metabolically active cells into a colored formazan product that is soluble in tissue culture medium (27, 28). For detection, the absorbance was measured at 490 nm. To determine the ratio of cell lysis induced by SSCrFCES, two controls were used. Complete lysis (100%) was achieved by incubating cells in phosphate buffer saline containing 0.2% Tween-20 instead of medium only. This absorbance value corresponded to the background, as those cells could not metabolize MTS. The second control representing 0% lysis was determined by incubating cells in medium only. […] The experiment was done in triplicate.

[5] = test system: Human erythrocytes; assay: Hemolysis assay, human erythrocytes; type: cell-based; conditions: 100 μg/ml
Protocol: Human and rabbit erythrocytes were both used to test the hemolytic activities of the peptides. Whole blood was collected in heparinized sterile syringe, transferred to sterile borosilicate tube and centrifuged at 1200 g for 5 minutes at 4° C. The supernatant including the leukocytes above the erythrocyte pellet was discarded. The erythrocytes were washed 3 times using three volumes of prechilled pyrogen-free saline (PFS). An erythrocyte suspension at 0.4% was prepared for the hemolysis assay. Serial two-fold dilutions of the peptides was prepared in PFS and 100 μl aliquots were added to equal volumes of 0.4% erythrocyte solution in a 96-well microtiter plate (Nunclon™ Δ surface, Nunc) to give final peptide concentrations ranging from 6 to 100 μg/ml. The mixtures were incubated at 37° C. for 1 h. The intact erythrocytes were then pelleted by centrifuging at 1000 g for 5 min. One hundred μl of the supernatant was transferred to a new 96-well microtiter plate and the amount of hemoglobin released into the supernatant was determined by reading the absorbance at 414 nm using a SPECTRAmax™ 340 plate reader with SOFTmax PRO™ version 1.2.0. A positive control with 100 μl of 0.4% erythrocyte lysed in 1% Triton-X 100 was taken as 100% lysis. The negative control was the erythrocytes in PFS alone, which gave minimal lysis. This was taken as 0%.

[6] = test system: Escherichia coli; conditions: time-kill kinetics tested on Escherichia coli; cited from earlier work
[7] = Modified Western blot LPS-binding assay of rFC; parameters: species or system E. coli; conditions: 300 μg protein per LPS/lipid A strip
Protocol: LPS from E. coli 055:B5 (Sigma) was reconstituted to 2 μg/μl, and diphosphoryl lipid A from E. coli K12, D31m4 LPS (List Biologicals, Inc., USA) was made up to 1 μg/μl. The LPS-binding assay was based on modifications of earlier described protocols (45,61). Briefly, 10 μg aliquots of LPS/lipid A were electrophoresed on a denaturing 15% SDS-polyacrylamide gel and electroblotted onto Immobilon™ PVDF membrane. The membrane was cut into strips and each LPS/lipid A strip was subsequently incubated with 300 μg of proteins containing rFC. Detection of rFC binding to lipid A was accomplished by incubation with anti-Factor C antibody followed by alkaline phosphatase-conjugated secondary goat anti-rabbit antibody (Dako) and BCIP/NBT colorimetric substrate (Moss, Inc., USA).

[8] = test system: the various bacteria used; assay: Bacteriostatic activity in in vitro cultures, the various bacteria used; type: cell-based; conditions: crude full-length rFC; Sephadex G-100 enriched truncates
Protocol: (§1) The bacteria used for the assay were Escherichia coli ATCC#25922, Salmonella typhimurium ATCC#14028, Pseudomonas aeruginosa ATCC#27853, Klebsiella pneumoniae ATCC#13883 and […]. A colony of each Gram-negative bacterium was inoculated into nutrient broth (Gibco, BRL) and grown at 37° C. until it reached the logarithmic phase of growth. The culture was diluted with nutrient broth to give 1-5×10^5 cells/ml. Aliquots of 2 ml culture were incubated with 1 mg rFC/ml of culture. Incubation was carried out at 37° C. At time intervals of 0, 2, 4, 6, and 24 h, the bacterial culture was vortexed to break up any agglutinated clumps. After vortexing, each culture was examined under the microscope to ensure homogeneity of bacteria. The culture was serially diluted with 0.85% saline, plated on nutrient agar (Oxoid) and incubated overnight at 37° C. for colony counting.

[9] = Competition between rFC and CAL Factor C for LPS (fluorimetric assay); type: biochemical; conditions: Biomax-50 enriched, 100 μg
Protocol: Carcinoscorpius amoebocyte lysate (CAL) containing native Factor C was used in an assay in which rFC competed with CAL Factor C for LPS. Because the rFC produced in P. pastoris lacks serine protease activity, the competition can be monitored by measuring the reduced enzymatic activity of CAL in a fluorimetric assay. Mixtures of 100 μl each of increasing concentrations of LPS or rFC, in fluorimetric assay buffer (50 mM Tris HCl pH 8, containing 0.1 M NaCl and 0.01 M CaCl2) were incubated at 37° C. for 1 h. Aliquots of 20 μg CAL were added to each mixture and the total volumes were made up to 2 ml with fluorimetric assay buffer. The reaction was continued at 37° C. for 1 h and the fluorimetric assay protocol (64) was followed. This involved the addition of 15 μl of 2 mM fluorimetric substrate N-t-Boc-Val-Pro-Arg-7-amido-4-methylcoumarin (Sigma) and incubation at 37° C. for 30 min. The reaction was terminated by the addition of 0.1 ml of glacial acetic acid (Merck). The product, amino methylcoumarin, was measured in fluorescence units (FU) on a Luminescence Spectrometer LS-5 (Perkin-Elmer) with excitation light at 380 nm and emission at 460 nm.
The percentage competition by rFC of the native Factor C enzyme activity of CAL was calculated based on comparison of enzyme activity with the negative control of pHILD2/151. […]
[formula] where FU represents fluorescence units.

[10] = test system: Escherichia coli ATCC#25922; assay: Bacteriostatic activity in in vitro culture, E. coli; type: cell-based; conditions: within 2 h of incubation
Protocol: as §1

Molecule	Cytotoxicity (Cell lysis) BC50 [4]	Haemolytic Activity at 100 μg/ml peptide (hu RBC) % lysis [5]	also measured
CC[C@H](C)[C@H](NC(=O)[C@H](CCCNC(=N)N)NC(=O)[C@H](C)NC(=O)[C@H](CCSC)NC(=O)CNC(=O)[C@H](CCCCN)NC(=O)[C@H](CC(C)C)NC(=O)[C@H](CCCCN)NC(=O)[C@H](Cc1ccccc1)NC(=O)CN)C(=O)N[C@@H](CO)C(=O)N[C@@H](CS)C(=O)N[C@@H](CC(C)C)C(=O)N1CCC[C@H]1C(=O)N[C@@H](CC(N)=O)C(=O)NCC(=O)N[C@@H](CCC(N)=O)C(=O)N[C@@H](Cc1c[nH]c2ccccc12)C(=O)N[C@@H](CO)C(=O)N[C@@H](CC(N)=O)C(=O)N[C@@H](Cc1ccccc1)C(=O)N1CCC[C@H]1C(=O)N1CCC[C@H]1C(=O)N[C@@H](CCCCN)C(=O)N[C@@H](CS)C(=O)N[C@H](C(=O)N[C@@H](CCCNC(=N)N)C(=O)N[C@@H](CCC(=O)O)C(=O)N[C@@H](CS)C(=O)N[C@@H](C)C(=O)N[C@@H](CCSC)C(=O)N[C@H](C(=O)N[C@@H](CO)C(=O)N[C@@H](CO)C(=O)O)C(C)C)[C@@H](C)CC [S1] (H-GFKLKGMARISCLPNGQWSNFPPKCIRECAMVSS-OH; N-terminus and C-terminus assumed)			Anti-microbial Potency P. aeruginosa MBC90 [1]: 0.03 µg/mL; Mouse Protection Assay [2]: 22% at 75; Killing rate (time to achieve MBC90) [3]: 7 min
GVSTTVLNIYRGIINLLQLNVKK [S8-vg3]	22 µM	100%	
HAEHKVKIGVEQKYGQFPQGTEVTYTCSGNYFLM [S3]		5%	
HKVKKIVKQLYRAEHKVKKIVKQL [S5]	33 µM	0%	
IYRGIINLIQLAVKKAQNVYQM [S9-vg4]	35 µM	75%	
LLNAVPHKATHAALKFLKEK [S7-vg2]	400 µM	5%	
MRKLVLALAKALAKVDKKNL [S6-vg1]	26 µM	5%	
Magainin II			Killing rate [6]: 60^d min
Nisin			Killing rate [6]: 60^d min
RAEHKVKKIVKQLYGQFRQLTRVTRTCSRFLRRM [S4]	3.8 µM	20%	
Ranalexin			Killing rate [6]: >60^d min
B1			binding to 7-20 kDa lipid A bands [7]: able to bind specifically to lipid A moiety of LPS, albeit less strongly; inhibitory effect on growth of the various bacteria [8]: did not have any inhibitory effect; effect on the enzymatic activity of CAL Factor C [9]: markedly lower competitive effect; agglutination of E. coli [10]: Agglutination
